The text below walks through data of patent US4029805A, “Semisynthetic penicillins” (Hoffmann-La Roche Inc., priority 1976, dated 1977).

Data set [1] concerns D. pneumoniae. In words: Curative dose against systemic D. pneumoniae infection. It counts as in vivo, mice. The conditions noted are these: Streptococcus pneumoniae, in Mus musculus, read-out: CD50 (the source's name).
The nature of data set [2]: in vivo.
For data set [3], the system named is K. pneumoniae. Kind of data set: Curative dose against systemic K. pneumoniae infection. The format is in vivo, mice. Particulars: Klebsiella pneumoniae, in Mus musculus, read-out: CD50 (the source's name).
Data set [4] has as its system S. typhosa. In words: Curative dose against systemic S. typhosa infection. It counts as in vivo, mice. The conditions noted are these: Mus musculus, sc, read-out: CD50 (the source's name).
The subject of data set [5] is S. schottmuelleri. Kind of data set: Curative dose against systemic S. schottmuelleri infection. The conditions noted are these: Mus musculus, read-out: CD50 (the source's name). The format is in vivo, mice.
The test system of data set [6] is S. pyogenes. In words: Curative dose against systemic S. pyogenes infection. The format is in vivo, mice. The conditions noted are these: Streptococcus pyogenes, in Mus musculus, read-out: CD50 (the source's name).
Data set [7] deals with E. coli. Kind of data set: Curative dose against systemic E. coli infection. The format is in vivo, mice. Particulars: Escherichia coli, in Mus musculus, po. The procedure:
(§1) In order to illustrate the relative activity of the compounds of this invention as compared to amoxicillin, the compounds, represented by the acetaldehyde derivative, were tested orally against systemic bacterial infections of mice with the following results. The CD50 is the curative dose in 50% of the animals treated against a challenge organism.

A short description of data set [8]: physchem. It counts as physicochemical. Particulars: 5% dextrose solution, read-out: antibacterial activity retained in a 24 hour period. The procedure:
The antibacterial activity retained in a 24 hour period by the acetaldehyde derivative when dissolved in 5% dextrose solutions at 0.5 and 1.0% concentration is 83% and 80% respectively. The sodium salt of amoxicillin retains less than 40% activity under the same conditions.

In data set [9] the test system is E. coli. Kind of data set: Curative dose against systemic E. coli infection. It counts as in vivo, mice. The conditions noted are these: Escherichia coli, in Mus musculus, read-out: CD50 (the source's name).
For data set [10], the system named is S. typhosa. Kind of data set: Curative dose against systemic S. typhosa infection. It counts as in vivo, mice. Particulars: Mus musculus, po, read-out: CD50 (the source's name). The procedure: as §1
A short description of data set [11]: Stability in aqueous solution at room temperature, microbiological assay using B. subtilis. Particulars: water. The protocol: To illustrate the relative stability of the compounds of this invention in aqueous solution at room temperature the sodium salts of the compounds were tested as 20% by weight aqueous solutions for activity by microbiological assay using B. subtilis as the test organism and compared to 10% and 20% aqueous solutions of amoxicillin sodium salt and 10% aqueous solution of the acetone derivative of amoxicillin.

In data set [12] the test system is S. aureus. In words: Curative dose against systemic S. aureus infection. The format is in vivo, mice. The conditions noted are these: Staphylococcus aureus, in Mus musculus, read-out: CD50 (the source's name).
Setting [13] is: Table 3(b), po, acetaldehyde derivative comparison.
The mark [14] stands for this setting: Table 3(b), sc, acetaldehyde derivative comparison.
Setting [15] is: Table 3(b), acetaldehyde derivative comparison.
The mark [16] stands for this setting: po, butyraldehyde derivative comparison.
[17] abbreviates: sc, butyraldehyde derivative comparison.
The mark [18] stands for this setting: butyraldehyde derivative comparison.

The structures appear in SMILES notation. Where a name gives a salt, the structure may show the parent alone. Read-outs that look alike come from different tables or passages of the source. A value given as a limit tells only on which side of the number the result lay.

On to `CC1N[C@H](c2ccc(O)cc2)C(=O)N1[C@@H]1C(=O)N2[C@@H]1SC(C)(C)[C@@H]2C(=O)O` (stereo partly drawn) [Acetaldehyde derivative], for which the ED50 in data set [1] (setting [13]) was found to be 12 mg/kg; in data set [1] (setting [14]) it was 0.76 mg/kg; in data set [3] (setting [13]), 17 mg/kg; in data set [3] (setting [14]), 11 mg/kg; in data set [4] (setting [15]), 6.5 mg/kg; in data set [5] (setting [13]) it was 6.4 mg/kg. Also, the ED50 in data set [5] (setting [14]) was 3.4 mg/kg; in data set [6] (setting [13]), 1.7 mg/kg; in [6] (setting [14]), less than 0.05 mg/kg; in [7] (Table 3(b), acetaldehyde derivative comparison, read-out: CD50 (the source's name)) it was 4.6 mg/kg; in data set [7] (read-out: CD50, Table 2, PO, mice), 5 mg/kg; in data set [9] (sc, Table 3(b), sc, acetaldehyde derivative comparison), 6.9 mg/kg. The ED50 amounted to 8.8 mg/kg in data set [10] (setting [15]), 0.77 mg/kg in data set [12] (setting [13]) and 1.3 mg/kg in [12] (setting [14]). Also, the LD50 was 9200 mg/kg in [2] (ip), more than 10000 mg/kg in data set [2] (po) and more than 10000 mg/kg in data set [2] (sc). Moreover, the remaining at 24 h in data set [8] (0.5% concentration) was 83%; in [8] (1.0% concentration), 80%; in [11] it was 94%. Further, the remaining at 1 h in [11] is 100%. The compound also yielded a remaining at 2 h in data set [11] of 99%. For the same compound, in data set [11], the remaining at 4 h was 99%. This compound showed a remaining at 6 h in data set [11] of 98%. This compound returned a remaining at 6.5 h in [11] of 98%.

Take `CC1(C)S[C@@H]2[C@H](NC(=O)[C@H](N)c3ccc(O)cc3)C(=O)N2[C@H]1C(=O)O` [Amoxicillin sodium salt]: the remaining at 24 h in [8] (5% dextrose solutions, same conditions (0.5 and 1.0%)) is less than 40%. In data set [11], this compound gave a remaining at 1 h of 100%, a remaining at 2 h of 91%, a remaining at 4 h of 65% and a remaining at 6 h of 59%. In [11], this compound registered a remaining at 6.5 h of 58% and a remaining at 24 h of 38%.

Take `CCCC1N[C@H](c2ccc(O)cc2)C(=O)N1[C@@H]1C(=O)N2[C@@H]1SC(C)(C)[C@@H]2C(=O)O` (stereo partly drawn) [Butyraldehyde derivative]: the ED50 was found to be 2.1 mg/kg in [1] (setting [16]); 2.5 mg/kg in data set [1] (setting [17]); 46 mg/kg in [3] (setting [16]); 16 mg/kg in [3] (setting [17]); 0.85 mg/kg in data set [4] (setting [18]); 5.7 mg/kg in data set [5] (setting [16]). Also, the ED50 in [5] (setting [17]) was 3.2 mg/kg; in [6] (setting [16]) it was less than 0.05 mg/kg; in data set [6] (setting [17]) it was 0.01 mg/kg; in [9] (setting [16]), 12 mg/kg; in data set [9] (setting [17]), 3.9 mg/kg; in [10] (setting [18]) it was 2.9 mg/kg. Besides, the values for the ED50 in data set [12] (setting [16]) and in [12] (setting [17]) were 0.2 mg/kg and 0.11 mg/kg, respectively. In addition, the values for the LD50 in data set [2] (ip), in [2] (po) and in data set [2] (sc) were 7270 mg/kg, more than 10000 mg/kg and 10000 mg/kg, respectively. In data set [11], this compound came in with a remaining at 1 h of 95%. The same compound yielded a remaining at 2 h in data set [11] of 83%. Further, in data set [11], the remaining at 6 h was found to be 83%. Besides, the remaining at 24 h in data set [11] was determined as 70%.

In general, LD50 refers to the dose at which mortality reaches 50%. High values mean a less toxic substance, low ones a more toxic substance.
